# Measured values taken from paper PMC5218480 (PLoS ONE, 2017).
# Test system: MV-4-11 cells
# Assay: Gene expression microarray analysis (Affymetrix PrimeView) and GSEA
# Type: cell-based, human
# Parameters: RFU PODN (11730768_x_at) / Fold change /veh PODN (11730768_x_at) / RFU LINC00158 (11744669_a_at) / Fold change /veh LINC00158 (11744669_a_at) / RFU DUSP10 (11751237_a_at) / Fold change /veh DUSP10 (11751237_a_at) / RFU ID3 (11757404_x_at) / Fold change /veh ID3 (11757404_x_at) / RFU PLEKHG5 (11737974_s_at) / Fold change /veh PLEKHG5 (11737974_s_at) / RFU LRRC4B (11730491_at) / Fold change /veh LRRC4B (11730491_at) / RFU GIMAP4 (11747438_a_at) / Fold change /veh GIMAP4 (11747438_a_at) / RFU KRT8 (11758183_x_at) / Fold change /veh KRT8 (11758183_x_at) / RFU CNN1 (11734310_a_at) / Fold change /veh CNN1 (11734310_a_at) / RFU VPS37D (11726825_at) / Fold change /veh VPS37D (11726825_at) / RFU C10orf10 (11716522_x_at) / Fold change /veh C10orf10 (11716522_x_at) / RFU KIR2DL2 /// KIR2DL4 /// KIR2DL5A /// KIR2DL5B /// KIR2DS1 /// KIR2DS2 /// KIR2DS3 /// KIR2DS4 /// KIR3DL3 /// KIR3DL3 /// KIR3DS1 (11738374_at) / Fold change /veh KIR2DL2 /// KIR2DL4 /// KIR2DL5A /// KIR2DL5B /// KIR2DS1 /// KIR2DS2 /// KIR2DS3 /// KIR2DS4 /// KIR3DL3 /// KIR3DL3 /// KIR3DS1 (11738374_at) / RFU C1QL1 (11718748_at) / Fold change /veh C1QL1 (11718748_at) / RFU TMPRSS4 (11747572_a_at) / Fold change /veh TMPRSS4 (11747572_a_at) / RFU HAMP (11756126_x_at) / Fold change /veh HAMP (11756126_x_at) / RFU RNFT2 (11725882_a_at) / Fold change /veh RNFT2 (11725882_a_at) / RFU NR4A2 (11747474_a_at) / Fold change /veh NR4A2 (11747474_a_at) / RFU ABCC12 (11746883_a_at) / Fold change /veh ABCC12 (11746883_a_at) / RFU TMEM136 (11760407_x_at) / Fold change /veh TMEM136 (11760407_x_at) / RFU CLDN22 /// WWC2 (11732394_at) / Fold change /veh CLDN22 /// WWC2 (11732394_at) / RFU HLA-DPB1 (11760878_x_at) / Fold change /veh HLA-DPB1 (11760878_x_at) / RFU SPINT1 (11716480_a_at) / Fold change /veh SPINT1 (11716480_a_at) / RFU GAP43 (11754022_s_at) / Fold change /veh GAP43 (11754022_s_at) / RFU A4GNT (11735810_at) / Fold change /veh A4GNT (11735810_at) / RFU PRB3 (11715151_x_at) / Fold change /veh PRB3 (11715151_x_at) / RFU TUBB4B (11761932_at) / Fold change /veh TUBB4B (11761932_at) / RFU CAPN14 (11732068_a_at) / Fold change /veh CAPN14 (11732068_a_at) / RFU TMCC2 (11721928_a_at) / Fold change /veh TMCC2 (11721928_a_at) / RFU IRGQ (11745062_a_at) / Fold change /veh IRGQ (11745062_a_at) / RFU FAM174B (11720279_a_at) / Fold change /veh FAM174B (11720279_a_at) / RFU TMPRSS4 (11748680_a_at) / Fold change /veh TMPRSS4 (11748680_a_at) / RFU FAM212B (11763350_a_at) / Fold change /veh FAM212B (11763350_a_at) / RFU PLEKHG5 (11743358_a_at) / Fold change /veh PLEKHG5 (11743358_a_at) / RFU ZSCAN30 (11745921_a_at) / Fold change /veh ZSCAN30 (11745921_a_at) / RFU CMKLR1 (11741424_a_at) / Fold change /veh CMKLR1 (11741424_a_at) / RFU LOC101060620 /// MAPK8IP1 (11723275_at) / Fold change /veh LOC101060620 /// MAPK8IP1 (11723275_at) / RFU SPTSSB (11747773_x_at) / Fold change /veh SPTSSB (11747773_x_at) / RFU PRSS12 (11739890_at) / Fold change /veh PRSS12 (11739890_at) / RFU BIN1 (11741810_x_at) / Fold change /veh BIN1 (11741810_x_at) / RFU WNT11 (11732464_a_at) / Fold change /veh WNT11 (11732464_a_at) / RFU C10orf10 (11716521_a_at) / Fold change /veh C10orf10 (11716521_a_at) / RFU C5orf56 (11738089_at) / Fold change /veh C5orf56 (11738089_at) / RFU CYB561 (11721691_x_at) / Fold change /veh CYB561 (11721691_x_at) / RFU ANKRD19P (11752326_a_at) / Fold change /veh ANKRD19P (11752326_a_at) / RFU OR2T12 /// OR2T33 /// OR2T8 (11738714_s_at) / Fold change /veh OR2T12 /// OR2T33 /// OR2T8 (11738714_s_at) / RFU VCAN (11748164_a_at) / Fold change /veh VCAN (11748164_a_at) / RFU JSRP1 (11732532_at) / Fold change /veh JSRP1 (11732532_at) / RFU KRTAP10-11 (11738290_x_at) / Fold change /veh KRTAP10-11 (11738290_x_at) / RFU MYO3A (11730013_a_at) / Fold change /veh MYO3A (11730013_a_at) / RFU EBF3 (11725865_a_at) / Fold change /veh EBF3 (11725865_a_at) / RFU CAMK2N1 (11719241_x_at) / Fold change /veh CAMK2N1 (11719241_x_at) / RFU C5orf56 (11738088_a_at) / Fold change /veh C5orf56 (11738088_a_at) / RFU OLFML3 (11715873_a_at) / Fold change /veh OLFML3 (11715873_a_at) / RFU LOC100653217 /// NTM (11731650_a_at) / Fold change /veh LOC100653217 /// NTM (11731650_a_at) / RFU MAPK11 (11762145_a_at) / Fold change /veh MAPK11 (11762145_a_at) / RFU FIZ1 (11724087_x_at) / Fold change /veh FIZ1 (11724087_x_at) / RFU OASL (11726364_x_at) / Fold change /veh OASL (11726364_x_at) / RFU SOX15 (11748057_x_at) / Fold change /veh SOX15 (11748057_x_at) / RFU CD79A (11719716_a_at) / Fold change /veh CD79A (11719716_a_at) / RFU HIST1H1D (11736915_at) / Fold change /veh HIST1H1D (11736915_at) / RFU CASKIN2 (11723855_a_at) / Fold change /veh CASKIN2 (11723855_a_at) / RFU LOC730098 (11760151_x_at) / Fold change /veh LOC730098 (11760151_x_at) / RFU OR4N2 (11742367_at) / Fold change /veh OR4N2 (11742367_at) / RFU PRRT2 (11749266_a_at) / Fold change /veh PRRT2 (11749266_a_at) / RFU SNX32 (11753110_a_at) / Fold change /veh SNX32 (11753110_a_at) / RFU CDHR5 (11726645_a_at) / Fold change /veh CDHR5 (11726645_a_at) / RFU RCAN1 (11760418_a_at) / Fold change /veh RCAN1 (11760418_a_at) / RFU FAM167A (11723789_a_at) / Fold change /veh FAM167A (11723789_a_at) / RFU FAM26E (11764081_at) / Fold change /veh FAM26E (11764081_at) / RFU ISYNA1 (11749810_s_at) / Fold change /veh ISYNA1 (11749810_s_at) / RFU ACY1 (11761880_at) / Fold change /veh ACY1 (11761880_at) / RFU 11764098_at / Fold change /veh 11764098_at / RFU SAMD14 (11745864_x_at) / Fold change /veh SAMD14 (11745864_x_at) / RFU NPB (11741838_a_at) / Fold change /veh NPB (11741838_a_at) / RFU TMPRSS6 (11731388_a_at) / Fold change /veh TMPRSS6 (11731388_a_at) / RFU KRTAP10-2 (11738614_at) / Fold change /veh KRTAP10-2 (11738614_at) / RFU ARHGAP8 /// PRR5-ARHGAP8 (11727945_x_at) / Fold change /veh ARHGAP8 /// PRR5-ARHGAP8 (11727945_x_at) / RFU KRTAP5-7 /// NADSYN1 (11734609_at) / Fold change /veh KRTAP5-7 /// NADSYN1 (11734609_at) / RFU RASL12 (11751679_a_at) / Fold change /veh RASL12 (11751679_a_at) / RFU CDKN2B (11736163_a_at) / Fold change /veh CDKN2B (11736163_a_at) / RFU PRF1 (11729649_at) / Fold change /veh PRF1 (11729649_at) / RFU, ZNF638 /// ZNF638-IT1 / Fold change vs veh, ZNF638 /// ZNF638-IT1 / RFU, PANK3 / Fold change vs veh, PANK3 / RFU, SH3YL1 / Fold change vs veh, SH3YL1 / RFU, ZEB2 / Fold change vs veh, ZEB2 / RFU, NRIP1 / Fold change vs veh, NRIP1 / RFU, PTTG1IP / Fold change vs veh, PTTG1IP / RFU, CAPN2 / Fold change vs veh, CAPN2 / RFU, MED14 / Fold change vs veh, MED14 / RFU, SNORA58 / Fold change vs veh, SNORA58 / RFU, C1orf63 / Fold change vs veh, C1orf63 / RFU, LRRFIP1 / Fold change vs veh, LRRFIP1 / RFU, NDUFAF7 / Fold change vs veh, NDUFAF7 / RFU, SLC12A2 / Fold change vs veh, SLC12A2 / RFU, IBTK / Fold change vs veh, IBTK / RFU, ESF1 / Fold change vs veh, ESF1 / Fold change vs veh, TMEM50B / RFU, TAOK1 / Fold change vs veh, TAOK1 / RFU, ACBD3 / Fold change vs veh, ACBD3 / RFU, TMA16 / Fold change vs veh, TMA16 / RFU, RWDD3 / Fold change vs veh, RWDD3 / RFU, BCAT1 / Fold change vs veh, BCAT1 / RFU, EDEM3 / Fold change vs veh, EDEM3 / RFU, TMEM33 / Fold change vs veh, TMEM33 / RFU, WDR75 / Fold change vs veh, WDR75 / RFU, AHCTF1 / Fold change vs veh, AHCTF1 / RFU, TFRC / Fold change vs veh, TFRC / RFU, ZDHHC17 / Fold change vs veh, ZDHHC17 / RFU, NOM1 / Fold change vs veh, NOM1 / RFU, ARL8B / Fold change vs veh, ARL8B / RFU, ZBTB11 / Fold change vs veh, ZBTB11 / RFU, TAMM41 / Fold change vs veh, TAMM41 / RFU, KIAA1704 /// LOC100996395 / Fold change vs veh, KIAA1704 /// LOC100996395 / RFU, ING1 / Fold change vs veh, ING1 / RFU, TRMT61B / Fold change vs veh, TRMT61B / RFU, FUBP3 / Fold change vs veh, FUBP3 / RFU, TP53 / Fold change vs veh, TP53 / RFU, TNKS2 / Fold change vs veh, TNKS2 / RFU, ZFP14 / Fold change vs veh, ZFP14 / RFU, ACTR2 / Fold change vs veh, ACTR2 / RFU, PPP3R1 / Fold change vs veh, PPP3R1 / RFU, PIK3R1 / Fold change vs veh, PIK3R1 / RFU, HNRNPA1 / Fold change vs veh, HNRNPA1 / RFU, RNF170 / Fold change vs veh, RNF170 / RFU, ZNF28 / Fold change vs veh, ZNF28 / RFU, RNGTT / Fold change vs veh, RNGTT / RFU, OGT / Fold change vs veh, OGT / RFU, BRD1 / Fold change vs veh, BRD1 / RFU, MARS / Fold change vs veh, MARS / RFU, ZNF655 / Fold change vs veh, ZNF655 / RFU, FAHD1 / Fold change vs veh, FAHD1 / RFU, BDP1 / Fold change vs veh, BDP1 / RFU, LRRCC1 / Fold change vs veh, LRRCC1 / RFU, ARID1A / Fold change vs veh, ARID1A / RFU, ZNF146 / Fold change vs veh, ZNF146 / RFU, ZNF330 / Fold change vs veh, ZNF330 / RFU, GPN3 / Fold change vs veh, GPN3 / RFU, C9orf123 / Fold change vs veh, C9orf123 / RFU, N4BP2L2 / Fold change vs veh, N4BP2L2 / RFU, ARFIP1 / Fold change vs veh, ARFIP1 / RFU, FAM179B / Fold change vs veh, FAM179B / RFU, BCL10 / Fold change vs veh, BCL10 / RFU, UHRF1BP1L / Fold change vs veh, UHRF1BP1L / RFU, BET1 / Fold change vs veh, BET1 / RFU, CNOT2 / Fold change vs veh, CNOT2 / RFU, ZNF268 / Fold change vs veh, ZNF268 / Fold change vs veh, ZNF507 / RFU, DGCR2 / Fold change vs veh, DGCR2 / RFU, WDSUB1 / Fold change vs veh, WDSUB1 / Fold change vs veh, HSP90B1 /// MIR3652 / RFU, ADSS / Fold change vs veh, ADSS / RFU, GK / Fold change vs veh, GK / RFU, ZNF148 / Fold change vs veh, ZNF148 / RFU, TAF9 / Fold change vs veh, TAF9 / RFU, SLC1A5 / Fold change vs veh, SLC1A5 / RFU, SLMO2 / Fold change vs veh, SLMO2 / RFU, ABCC4 / Fold change vs veh, ABCC4 / RFU, LOC101060439 /// RAP1B / Fold change vs veh, LOC101060439 /// RAP1B / RFU, RFX7 / Fold change vs veh, RFX7 / RFU, GTPBP10 / Fold change vs veh, GTPBP10 / RFU, CNEP1R1 / Fold change vs veh, CNEP1R1 / RFU, BIVM-ERCC5 /// ERCC5 / Fold change vs veh, BIVM-ERCC5 /// ERCC5 / RFU, ILF3 / Fold change vs veh, ILF3 / RFU 11762660_at / Fold change /veh 11762660_at / RFU VCAN (11757783_s_at) / Fold change /veh VCAN (11757783_s_at) / RFU DDX43 (11728927_at) / Fold change /veh DDX43 (11728927_at) / RFU KRT8 (11758188_x_at) / Fold change /veh KRT8 (11758188_x_at) / RFU NKD1 (11759106_at) / Fold change /veh NKD1 (11759106_at) / RFU SRD5A1 (11742802_a_at) / Fold change /veh SRD5A1 (11742802_a_at) / RFU TPSAB1 /// TPSB2 (11721975_s_at) / Fold change /veh TPSAB1 /// TPSB2 (11721975_s_at) / RFU GSTM3 (11746129_a_at) / Fold change /veh GSTM3 (11746129_a_at) / RFU IL23R (11737362_x_at) / Fold change /veh IL23R (11737362_x_at) / RFU TMEM51 (11727254_a_at) / Fold change /veh TMEM51 (11727254_a_at) / RFU PIWIL2 (11732686_x_at) / Fold change /veh PIWIL2 (11732686_x_at) / RFU ORM1 (11744905_x_at) / Fold change /veh ORM1 (11744905_x_at) / RFU CCDC152 (11743942_at) / Fold change /veh CCDC152 (11743942_at) / RFU ECM1 (11717891_a_at) / Fold change /veh ECM1 (11717891_a_at) / RFU IL23R (11748794_a_at) / Fold change /veh IL23R (11748794_a_at) / RFU TNFAIP8L3 (11732012_x_at) / Fold change /veh TNFAIP8L3 (11732012_x_at) / RFU MBOAT4 (11741988_at) / Fold change /veh MBOAT4 (11741988_at) / RFU 11764193_at / Fold change /veh 11764193_at / RFU TMEM53 (11763286_at) / Fold change /veh TMEM53 (11763286_at) / RFU MAGEB2 (11727129_at) / Fold change /veh MAGEB2 (11727129_at) / RFU TMEM200A (11744735_a_at) / Fold change /veh TMEM200A (11744735_a_at) / RFU CCDC152 (11751479_a_at) / Fold change /veh CCDC152 (11751479_a_at) / RFU FAM211A (11726209_a_at) / Fold change /veh FAM211A (11726209_a_at) / RFU RGS16 (11746705_a_at) / Fold change /veh RGS16 (11746705_a_at) / RFU VCAN (11755009_s_at) / Fold change /veh VCAN (11755009_s_at) / RFU RHOB (11743442_s_at) / Fold change /veh RHOB (11743442_s_at) / RFU RGS16 (11720943_a_at) / Fold change /veh RGS16 (11720943_a_at) / RFU RGS16 (11720944_at) / Fold change /veh RGS16 (11720944_at) / RFU, VPS4B / Fold change vs veh, VPS4B / RFU, CREB1 / Fold change vs veh, CREB1 / RFU, DNAJC13 / Fold change vs veh, DNAJC13 / RFU, GNAQ / Fold change vs veh, GNAQ / RFU, CDK5R1 / Fold change vs veh, CDK5R1 / RFU, ZRANB3 / Fold change vs veh, ZRANB3 / RFU, CUL4A / Fold change vs veh, CUL4A / RFU, CCNY / Fold change vs veh, CCNY / RFU, UFL1 / Fold change vs veh, UFL1 / RFU, COG3 / Fold change vs veh, COG3 / RFU, DIAPH2 / Fold change vs veh, DIAPH2 / RFU, SKA2 / Fold change vs veh, SKA2 / RFU, AFF3 / Fold change vs veh, AFF3 / RFU, LMF1 / Fold change vs veh, LMF1 / RFU, IPO11 / Fold change vs veh, IPO11 / RFU, DFFB / Fold change vs veh, DFFB / RFU, FOXP1 / Fold change vs veh, FOXP1 / RFU, CARD8 / Fold change vs veh, CARD8 / RFU, STRN3 / Fold change vs veh, STRN3 / RFU, ADK / Fold change vs veh, ADK / RFU, RASSF2 / Fold change vs veh, RASSF2 / RFU, WIPF1 / Fold change vs veh, WIPF1 / RFU, LARP1B / Fold change vs veh, LARP1B / RFU, RASA1 / Fold change vs veh, RASA1 / RFU, RB1 / Fold change vs veh, RB1 / RFU, PPFIA1 / Fold change vs veh, PPFIA1 / RFU, MAT2A / Fold change vs veh, MAT2A / RFU, CCT5 / Fold change vs veh, CCT5 / RFU, WDR92 / Fold change vs veh, WDR92 / RFU, CUX1 / Fold change vs veh, CUX1 / RFU, TTC7A / Fold change vs veh, TTC7A / RFU, TMEM135 / Fold change vs veh, TMEM135 / RFU, DEPTOR / Fold change vs veh, DEPTOR / RFU, CPM / Fold change vs veh, CPM / RFU, DNAJB6 / Fold change vs veh, DNAJB6 / RFU, CACNA2D3 / Fold change vs veh, CACNA2D3 / RFU, DTX4 / Fold change vs veh, DTX4 / RFU, TFCP2 / Fold change vs veh, TFCP2 / RFU, GMCL1 /// GMCL1P1 / Fold change vs veh, GMCL1 /// GMCL1P1 / RFU, AEBP2 / Fold change vs veh, AEBP2 / RFU, SNHG1 /// SNORD22 /// SNORD25 /// SNORD26 /// SNORD27 /// SNORD28 /// SNORD29 /// SNORD31 / Fold change vs veh, SNHG1 /// SNORD22 /// SNORD25 /// SNORD26 /// SNORD27 /// SNORD28 /// SNORD29 /// SNORD31 / Fold change (Aza/veh), C12orf56 (ProbeSet 11735607_a_at) / Fold change (ACY-1035/veh), C12orf56 (ProbeSet 11735607_a_at) / Fold change (Aza/veh), FGFR1OP (ProbeSet 11751329_s_at) / Fold change (ACY-1035/veh), FGFR1OP (ProbeSet 11751329_s_at) / Fold change (Aza/veh), VPS36 (ProbeSet 11739960_a_at) / Fold change (ACY-1035/veh), VPS36 (ProbeSet 11739960_a_at) / RFU SYPL1 (11715823_x_at) / Fold change /veh SYPL1 (11715823_x_at) / RFU IGFBP7 (11715501_s_at) / Fold change /veh IGFBP7 (11715501_s_at) / RFU REEP3 (11722064_at) / Fold change /veh REEP3 (11722064_at) / RFU IGLL1 (11728026_x_at) / Fold change /veh IGLL1 (11728026_x_at): dose or concentration left out as unconfirmed
# Settings: MV-4-11 cells, 48 hours
smiles,measurement,value
Nc1ncn([C@@H]2O[C@H](CO)[C@@H](O)[C@H]2O)c(=O)n1 [azacitidine],RFU ECM1 (11717891_a_at),24.53 RFU
